In data set [1] the test system is iNOS. Nature of the data set: iNOS activity by nitrite and nitrite/nitrate accumulation in cytomix-stimulated human primary epithelial cells. The following applies: for EC50: Homo sapiens, Epithelial cell, 24 h. The class given is cell-based. The procedure:
The inducible form of the enzyme NO synthase, iNOS(NOS2), which is known to be expressed during inflammation, is thought to be responsible for increased NO levels of asthmatic patients. Agents known to induce iNOS in human primary epithelial cells, such as interleukin-1β, tumor necrosis factor-α, and interferon-γ (cytomix) are useful in assaying resveratrol for inhibition of iNOS expression and activity, and comparing its effect to steroids.
Human primary epithelial cells are cultured from normal donor tissue. Explant cultures of tissue obtained from normal human lung transplant donors provided human primary epithelial (HPE) cells. The HPE cells were cultured in Ham's F12 nutrient medium containing 5% (v/v) fetal calf serum (FCS), 1 μM hydrocortisone, 5 ng/ml EGF (epithelial growth factor), 10 μg/ml insulin, 10 nM retinoic acid, 0.5 μg/ml transferrin, 2 μg/ml triiodothyronine, 1.5 μg/ml NaHCO3, 100 μg/ml penicillin, 100 μg/ml streptomycin and 0.25 μg/m amphotericin B; the cells were incubated at 37° C. in a humidified atmosphere containing 95% (v/v) air, 5% (v/v) CO2. The HPE cells were cultured for the last 24 hours prior to the experimental treatments under the same conditions except that additive free Ham's F12 media was substituted for the supplemented Ham's F12 media described above.
These cells were stimulated for 24 hours with 50 ng/ml cytomix (interferon-γ) in the absence or presence of resveratrol, or one of glucocorticoids, dexamethasone and budenoside. Activity of iNOS is measured by determination of […] and nitrite/nitrate accumulation. Nitrite was measured by a modification of the method of Misko, et al. (1993) Anal. Biochem. 214:11-16. […] The reaction was stopped by addition of 10 μl of 1.4M NaOH, and fluorescense was measured with a Biolite F1 fluorimeter (Labtech, Uckfield, U.K.) set at: 460 nm emission wavelength, 360 nm excitation wavelength, 40-50% sensitivity. Sample nitrite concentration was calculated by reference to a standard curve of known nitrite concentrations, permitting assay sensitivity to 0.1 μM.

The test system of data set [2] is CRE dependent transcription. Nature of the data set: CRE luciferase reporter in stably transfected A549 cells. In kind it is cell-based, human. The procedure: The expression of inflammatory genes was then evaluated in cells transformed with luciferase reporter genes containing sites for transcription factors (Tf, Tfs). The A549 cells were stably transfected by routine methods with luciferase reporters containing the transcription factors NF-κB, TRE (AP-1, TPA responsive element) and CRE (cAMP responsive element). Luciferase activity of cell lysates resuspended in […] cell lysis buffer mixed (40 mml resuspended lysate: 40 mml assay reagent) was measured using the Luciferase Assay System (Promega), with emitted light measured by a Turner DesignsTD-20/20 luminometer (Steptech Instruments Ltd., Stevenage, U.K.)

The subject of data set [3] is Steroid naive patients suffering from COPD. Nature of the data set: Oral or inhaled resveratrol vs inhaled glucocorticoids in COPD, steroid naive patients (Example 5). The class given is in vivo, human. The following applies: 12 to 24 months. The source says:
Steroid naive patients suffering from different COPDs patients are selected and divided into populations according to the COPD. Chronic bronchitis populations and emphysema populations are appropriately studied. The populations are divided in terms of progression of their COPD into subpopulations early or mild, mid-stage or moderate, and advanced impairment of lung function. The study is generally patterned after the asthma studies with modifications appropriate to the clinical and histopathologic evaluation of COPD disease, and the references listed in the preceding examples may be applied as appropriate. One major difference is that the COPD study should last for 1 to 2 years or longer, because of the chronic nature of COPD. Each subpopulation is divided equally and randomly into three groups. […]
Patients are medically monitored for clinical symptoms of COPD throughout the study, including frequency and severity of hypoxemic and respiratiry acidotic exacerbations. […] In addition exhaled nitric oxide (NO) and carbon monoxide (CO) levels may be measured at more frequent intervals, such as every other week. Forced expiratory volume (FEV) and forced inspiratory volume (FIV) are also evaluated to measure airway patency as a direct measure of clinical morbidity and to determine correlation the histopathologic and other indicators of clinical disease. […]

Read-outs that look alike come from different tables or passages of the source.

On to `Oc1ccc(/C=C/c2cc(O)cc(O)c2)cc1` [Resveratrol, 3,5,4′-trihydroxystilbene], for which, in data set [1] (HPE cells, cytomix 24 hours, steroids at 10^−9 M to 10^−5 M), the “inhibition of nitrite formation / accumulation in the cell culture media” value is listed as “only agent able to inhibit nitrite formation”. The EC50 in data set [1] (read-out: EC50 for nitrite accumulation) worked out at 3.6 ± 2.9 µM; in data set [1] (read-out: EC50 for nitrite/nitrate accumulation) it was 0.88 ± 0.47 µM; in data set [2] (Homo sapiens, read-out: EC50 for inhibition of CRE dependent transcription), 30 ± 17 µM. The “extent of inhibition of CRE dependent transcription” value in data set [2] is 91%. Moreover, the “efficacy in treating COPD compared with inhaled steroids” value in data set [3] (oral or pulmonary resveratrol vs pulmonary budenoside) is given as “more effective for treating COPD than inhaled steroids”. For the same molecule, in data set [3] (oral or pulmonary resveratrol), the “systemic effects compared with inhaled glucocorticosteroids” value was “fewer systemic effects”.
